In patent US20250282799A1, “SUBSTITUTED PYRIDO[4,3-d]PYRIMIDINES AS KRAS MODULATORS” (Alterome Therapeutics, Inc., priority 2023, published 2025):

System: KRAS G12V dependent lung adenocarcinoma cell line, NCI-H441
Assay: Cellular pERK (Thr202/Tyr204) FRET/HTRF assay
Type: cell-based
Conditions: Homo sapiens, NCI-H441, cellular pERK (Thr202/Tyr204) HTRF, NCI-H441 cells
Summary of the method: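 NCI-H441 cells (KRAS G12V) plated overnight at 37 °C, then exposed to compounds for 1 hr at 37 °C, 5% CO2; DMSO as negative control. Lysates read by Eu-cryptate/d2 sandwich FRET (665 nm) for ERK1/2 phosphorylated at Thr202/Tyr204; IC50 from curve fit.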

Structure (SMILES)	IC50
[2H]C([2H])(F)Oc1c(F)ccc2cccc(-c3ncc4c(N5CCOC[C@H]6[C@H](F)[C@H]65)nc(OC[C@]56CC(=C)CN5CCC65CC5)nc4c3F)c12 [Example 384, (1S,7S,8S)-8-fluoro-2-(8-fluoro-7-(7-fluoro-8-(fluoromethoxy-d2)naphthalen-1-yl)-2-(((R)-6′-methylenetetrahydrospiro[cyclopropane-1,1′-pyrrolizin]-7a′(5′H)-yl)methoxy)pyrido[4,3-d]pyrimidin-4-yl)-5-oxa-2-azabicyclo[5.1.0]octane]	< 50 nM
[2H]C([2H])(F)Oc1c(F)ccc2cc(N)cc(-c3ncc4c(N5CCOC[C@H]6[C@H](F)[C@H]65)nc(OC[C@]56C/C(=C\F)CN5CCC65CC5)nc4c3F)c12 [Example 388, 6-fluoro-4-(8-fluoro-4-((1S,7S,8S)-8-fluoro-5-oxa-2-azabicyclo[5.1.0]octan-2-yl)-2-(((R,E)-6′-(fluoromethylene)tetrahydrospiro[cyclopropane-1,1′-pyrrolizin]-7a′(5′H)-yl)methoxy)pyrido[4,3-d]pyrimidin-7-yl)-5-(fluoromethoxy-d2)naphthalen-2-amine]	< 50 nM
[2H]C([2H])(F)Oc1c(F)ccc2cc(N)cc(-c3ncc4c(N5CCOC[C@H]6[C@H](F)[C@H]65)nc(OC[C@]56C/C(=C/F)CN5CCC65CC5)nc4c3F)c12 [Example 389, 6-fluoro-4-(8-fluoro-4-((1S,7S,8S)-8-fluoro-5-oxa-2-azabicyclo[5.1.0]octan-2-yl)-2-(((R,Z)-6′-(fluoromethylene)tetrahydrospiro[cyclopropane-1,1′-pyrrolizin]-7a′(5′H)-yl)methoxy)pyrido[4,3-d]pyrimidin-7-yl)-5-(fluoromethoxy-d2)naphthalen-2-amine]	< 50 nM
C=C1CN2CCC[C@@]2(COc2nc(N3CCCC[C@H]4[C@H](F)[C@H]43)c3cnc(-c4cc(N)c(F)c(C)c4C(F)(F)F)c(F)c3n2)C1 [Example 392, 2-fluoro-5-(8-fluoro-4-((1S,7R,8S)-8-fluoro-2-azabicyclo[5.1.0]octan-2-yl)-2-(((S)-2-methylenetetrahydro-1H-pyrrolizin-7a(5H)-yl)methoxy)pyrido[4,3-d]pyrimidin-7-yl)-3-methyl-4-(trifluoromethyl)aniline]	50 to 500 nM
C=C1CN2CCC[C@@]2(COc2nc(N3CCCC[C@@H]4[C@@H](F)[C@@H]43)c3cnc(-c4cc(N)c(F)c(C)c4C(F)(F)F)c(F)c3n2)C1 [Example 393, 2-fluoro-5-(8-fluoro-4-((1R,7S,8R)-8-fluoro-2-azabicyclo[5.1.0]octan-2-yl)-2-(((S)-2-methylenetetrahydro-1H-pyrrolizin-7a(5H)-yl)methoxy)pyrido[4,3-d]pyrimidin-7-yl)-3-methyl-4-(trifluoromethyl)aniline]	500 to 10000 nM
Cc1c(F)c(N)cc(-c2ncc3c(N4CCCC[C@H]5[C@H](F)[C@H]54)nc(OC[C@@]45CCCN4CC(=C(F)F)C5)nc3c2F)c1C(F)(F)F [Example 394, 5-(2-(((S)-2-(difluoromethylene)tetrahydro-1H-pyrrolizin-7a(5H)-yl)methoxy)-8-fluoro-4-((1S,7R,8S)-8-fluoro-2-azabicyclo[5.1.0]octan-2-yl)pyrido[4,3-d]pyrimidin-7-yl)-2-fluoro-3-methyl-4-(trifluoromethyl)aniline]	500 to 10000 nM
Cc1c(F)c(N)cc(-c2ncc3c(N4CCCC[C@@H]5[C@@H](F)[C@@H]54)nc(OC[C@@]45CCCN4CC(=C(F)F)C5)nc3c2F)c1C(F)(F)F [Example 395, 5-(2-(((S)-2-(difluoromethylene)tetrahydro-1H-pyrrolizin-7a(5H)-yl)methoxy)-8-fluoro-4-((1R,7S,8R)-8-fluoro-2-azabicyclo[5.1.0]octan-2-yl)pyrido[4,3-d]pyrimidin-7-yl)-2-fluoro-3-methyl-4-(trifluoromethyl)aniline]	500 to 10000 nM
Cc1c(F)c(N)cc(-c2ncc3c(N4CCCC[C@H]5[C@H](F)[C@H]54)nc(OC[C@@]45CCCN4C/C(=C/F)C5)nc3c2F)c1C(F)(F)F [Example 396, 2-fluoro-5-(8-fluoro-4-((1S,7R,8S)-8-fluoro-2-azabicyclo[5.1.0]octan-2-yl)-2-(((S,E)-2-(fluoromethylene)tetrahydro-1H-pyrrolizin-7a(5H)-yl)methoxy)pyrido[4,3-d]pyrimidin-7-yl)-3-methyl-4-(trifluoromethyl)aniline]	500 to 10000 nM
Cc1c(F)c(N)cc(-c2ncc3c(N4CCCC[C@H]5[C@H](F)[C@H]54)nc(OC[C@@]45CCCN4C/C(=C\F)C5)nc3c2F)c1C(F)(F)F [Example 398, 2-fluoro-5-(8-fluoro-4-((1S,7R,8S)-8-fluoro-2-azabicyclo[5.1.0]octan-2-yl)-2-(((S,Z)-2-(fluoromethylene)tetrahydro-1H-pyrrolizin-7a(5H)-yl)methoxy)pyrido[4,3-d]pyrimidin-7-yl)-3-methyl-4-(trifluoromethyl)aniline]	50 to 500 nM

Continued, values first:

IC50	Structure (SMILES)
< 50 nM	[2H]C([2H])(F)Oc1c(F)ccc2cccc(-c3ncc4c(N5CCOC[C@H]6[C@H](F)[C@H]65)nc(OC[C@]56C/C(=C\F)CN5CCC65CC5)nc4c3F)c12 [Example 385, (1S,7S,8S)-8-fluoro-2-(8-fluoro-7-(7-fluoro-8-(fluoromethoxy-d2)naphthalen-1-yl)-2-(((R,E)-6′-(fluoromethylene)tetrahydrospiro[cyclopropane-1,1′-pyrrolizin]-7a′(5′H)-yl)methoxy)pyrido[4,3-d]pyrimidin-4-yl)-5-oxa-2-azabicyclo[5.1.0]octane]
< 50 nM	[2H]C([2H])(F)Oc1c(F)ccc2cccc(-c3ncc4c(N5CCOC[C@H]6[C@H](F)[C@H]65)nc(OC[C@]56C/C(=C/F)CN5CCC65CC5)nc4c3F)c12 [Example 386, (1S,7S,8S)-8-fluoro-2-(8-fluoro-7-(7-fluoro-8-(fluoromethoxy-d2)naphthalen-1-yl)-2-(((R,Z)-6′-(fluoromethylene)tetrahydrospiro[cyclopropane-1,1′-pyrrolizin]-7a′(5′H)-yl)methoxy)pyrido[4,3-d]pyrimidin-4-yl)-5-oxa-2-azabicyclo[5.1.0]octane]
< 50 nM	[2H]C([2H])(F)Oc1c(F)ccc2cc(N)cc(-c3ncc4c(N5CCOC[C@H]6[C@H](F)[C@H]65)nc(OC[C@]56CC(=C)CN5CCC65CC5)nc4c3F)c12 [Example 387, 6-fluoro-4-(8-fluoro-4-((1S,7S,8S)-8-fluoro-5-oxa-2-azabicyclo[5.1.0]octan-2-yl)-2-(((R)-6′-methylenetetrahydrospiro[cyclopropane-1,1′-pyrrolizin]-7a′(5′H)-yl)methoxy)pyrido[4,3-d]pyrimidin-7-yl)-5-(fluoromethoxy-d2)naphthalen-2-amine]
500 to 10000 nM	Cc1c(F)c(N)cc(-c2ncc3c(N4CCCC[C@@H]5[C@@H](F)[C@@H]54)nc(OC[C@@]45CCCN4C/C(=C/F)C5)nc3c2F)c1C(F)(F)F [Example 397, 2-fluoro-5-(8-fluoro-4-((1R,7S,8R)-8-fluoro-2-azabicyclo[5.1.0]octan-2-yl)-2-(((S,E)-2-(fluoromethylene)tetrahydro-1H-pyrrolizin-7a(5H)-yl)methoxy)pyrido[4,3-d]pyrimidin-7-yl)-3-methyl-4-(trifluoromethyl)aniline]
